PMC9572541, “Design, Synthesis and Biological Evaluation of Novel and Potent Protein Arginine Methyltransferases 5 Inhibitors for Cancer Therapy” (Molecules, 2022)

Legend:
PRMT5 = molecular target: T1, PRMT5 (Homo sapiens, UniProt O14744); assay: PRMT5 enzymatic activity inhibition assay (radioactive methylation, 3H-SAM to H4R3 peptide); assay type: biochemical; conditions: for inhibition at 0.1 µM: 100 nM compound, read-out: Inhibition Rate% @100 nM
T1 construct: The final concentrations of PRMT5 enzyme: 2.5 nm/L
T1 sequence (O14744 whole entry): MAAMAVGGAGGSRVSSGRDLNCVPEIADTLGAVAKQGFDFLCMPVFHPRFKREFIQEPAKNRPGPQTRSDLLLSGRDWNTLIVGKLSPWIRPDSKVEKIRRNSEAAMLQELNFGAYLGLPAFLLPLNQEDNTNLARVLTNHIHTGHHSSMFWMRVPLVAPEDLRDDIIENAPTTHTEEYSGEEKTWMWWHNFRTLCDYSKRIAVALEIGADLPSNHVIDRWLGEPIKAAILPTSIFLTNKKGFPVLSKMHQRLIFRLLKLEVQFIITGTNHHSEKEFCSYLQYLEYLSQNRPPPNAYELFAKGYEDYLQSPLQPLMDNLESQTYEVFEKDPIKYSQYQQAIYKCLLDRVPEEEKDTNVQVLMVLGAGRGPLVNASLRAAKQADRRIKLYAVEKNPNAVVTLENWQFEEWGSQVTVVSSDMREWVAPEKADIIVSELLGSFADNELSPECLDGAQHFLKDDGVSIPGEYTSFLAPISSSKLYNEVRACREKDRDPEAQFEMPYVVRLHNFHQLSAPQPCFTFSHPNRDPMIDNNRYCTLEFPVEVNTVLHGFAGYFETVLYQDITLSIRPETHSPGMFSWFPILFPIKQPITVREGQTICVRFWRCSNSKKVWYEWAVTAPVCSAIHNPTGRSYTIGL
T1 sequence (Q9BQA1 whole entry partner): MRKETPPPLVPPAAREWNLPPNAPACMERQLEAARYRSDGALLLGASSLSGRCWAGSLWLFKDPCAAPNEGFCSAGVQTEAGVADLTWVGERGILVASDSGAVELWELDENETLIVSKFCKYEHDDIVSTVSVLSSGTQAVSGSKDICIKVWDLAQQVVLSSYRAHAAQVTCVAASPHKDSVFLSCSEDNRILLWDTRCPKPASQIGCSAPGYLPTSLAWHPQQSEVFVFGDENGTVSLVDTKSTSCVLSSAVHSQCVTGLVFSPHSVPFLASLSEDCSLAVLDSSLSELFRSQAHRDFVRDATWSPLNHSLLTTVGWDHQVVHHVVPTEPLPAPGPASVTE
Experimental: The PRMT5 enzymatic activity assay was conducted by Chempartner Life science. The final concentrations of PRMT5 enzyme: 2.5 nm/L; ^3H-SAM: 0.3 μM/L; histone peptide (H4R3S1ac): 0.3 μM/L. The protocol of radioactive methylation assay was as follows: (1) Prepare 1× assay buffer (modified Tris Buffer). (2) Transfer compounds to assay plate using Echo in 100% DMSO. DMSO’s final fraction is 1%. (3) Prepare enzyme and ^3H-SAM Mix solution in 1× assay buffer. (4) Prepare substrate (peptide sequence Ac-[…]-K(Biotin)) solution in 1× assay buffer. (5) Transfer 15 μL of enzyme and ^3H-SAM solution to assay plate. (6) Incubate at room temperature for 60 min. (7) Add 10 μL of substrate solution to each well to start the reaction, and for low control transfer 10 μL of 1× assay buffer. (8) Incubate at room temperature for 120 min. (9) Add cold SAM in 1× assay buffer to make the stop mix. (10) Stop reaction with addition of 5 µL per well of stop solution. (11) Transfer 25 µL of volume per well to Flash plate from assay plate. (12) Incubate for 1 h minimum at room temperature.
(13) Read plate on Micro beta. (14) Data process—get the data in Excel to obtain inhibition values using Equation (1).Inhibitory rate% = (Max-Signal)/ (Max-Min) × 100(1)
Fit the data in XL-Fit to obtain IC50 values using Equation (2): Y = Bottom + (Top-Bottom)/(1 + (IC50/X) […]) Y is% inhibition and X is compound concentration(2)

MV-4-11 cells = assay: Anti-proliferation CellTiter-Glo assay, MV-4-11; assay type: cell-based; conditions: Homo sapiens, MV4-11, 12th day
From the text: (§1) MV-4-11 and MDA-MB-468 cell lines were used to evaluate the anti-proliferative activities of the selected target compounds (CellTiter-Glo assay), and AML-12 hepatocytes were selected to evaluate the toxicity of the compounds.
(§2) MV-4-11 and MDA-MB-468 cell line were derived from Cell Resources Center of Shanghai Academy of life sciences (Shanghai, China). AML-12 cell line was brough from Nanjing Lixing Biotechnology Co. Ltd. (Nanjing, China). MDA-MB-468 cell line was maintained in Dulbecco’s Modified Eagle Medium (DMEM, KeyGEN Bio) that contained 10% FBS (Biochanel, China), MV-4-11 cell line was maintained in Iscove’s Modified Dulbecco Medium containing; 10% FBS (Biochannel, China), AML-12 cell line was maintained in DMEM/F-12 (1:1) (KeyGEN, China; 1% ITS Liquid Media Supplement (Sigma, America), dexamethasone 40 ng/mL (Sigma, USA) and 10% FBS (Biochannel, China). All cells were grown in a humidified incubator containing 5% carbon dioxide at 37 ℃. All compounds were dispersed in dimethyl sulfoxide (Sigma), the concentration of the reserve solution was 10 mmol/L and the solution was stored in a refrigerator at −20 ℃. SDMA (# 13222S), β- Tubulin (#2146S) and horseradish peroxidase (HRP)-linked secondary antibodies anti-rabbit or anti-mouse IgG were purchased from Cell Signaling Technology (CST), and the anti-PRMT5 (ab109451) antibody was purchased from ABCAM.
(§3) The antiproliferative activities of compounds in vitro were measured by CellTiter-Glo (CTG) assay (Promega, America). In linear/log-phase growth, cultured MV-4-11 cells were split to with seeding density of 2 × 10^5 cells/mL in 1–20 mL of media, depending on the yield required at the end of the growth period. At the conclusion of each treatment period, cells were harvested by centrifugation (4 min, 1000 rpm), and cell pellets were rinsed twice with PBS before being research further processing. Afterwards, cells were plated in 96-well plates with a density of 500 cells/well in […] media. After six hours incubation, compounds treatment was performed. Half of the culture medium was moved and re-plated with fresh media with fresh compound after 6 days. On the 12th day, Cell Titer-Glo Luminescent Cell Viability assays (Promega, USA) were used to determine the viable cell number, and luminescence was recorded using the Envision Multilabel Plate Readers (PerkinElmer). The concentration dependence curves were determined at each time point using GraphPad Prism 8.0 software.

MDA-MB-468 cells = assay: Anti-proliferation CellTiter-Glo assay, MDA-MB-468; assay type: cell-based; conditions: Homo sapiens
From the text: as §1, §2, §3

AML-12 hepatocytes = assay: Toxicity on normal AML-12 hepatocytes; assay type: cell-based; conditions: Mus musculus, AML12; for inhibition at 10 µM: read-out: AML-12 Inhibition Rate% @10 μM; for inhibition at 20 µM: read-out: AML-12 Inhibition Rate% @20 μM
From the text: as §1
as §2, with “ABCAM. […]” for “ABCAM.”

MV-4-11 xenograft = MV-4-11 xenograft mouse model; assay type: in vivo, BALB/c nude mice; conditions: 10 mg/kg, twice daily (BID), 28 days
Experimental: Based on the excellent enzymatic and anti-proliferative activities of compound 20 in vitro, we then evaluated antitumor activities in vivo in an MV-4-11 xenograft mouse model.
Male BALB/c nude mice (6–8 weeks old) were purchased from Hangzhou Medical College. All animals were housed in a specific pathogen-free facility. MV-4-11 cells (5 × 10^6) suspended in 0.2 mL of PBS were inoculated subcutaneously on the right flank of each BALB/c nude mouse. Mice were divided randomly (5 mice for each group) into two treatment groups and a control group when the size of the tumors reached 150 mm^3. […] The tumor volume and body weight were measured every 2 days. The tumor volume was determined with Vernier calipers and calculated as follows: tumor volume = a × b^2/2, where a and b stand for the longest and shortest diameters measured by the vernier caliper, respectively. All animal experiments have been approved by Pharmaceutical Experiment Center of China Pharmaceutical University.
(A) The resulting tumors excised from the animals after treatment. […] (C) The nude mouse body weight was measured every 2 days. (D) The tumor volumes of the nude mice were measured and calculated once every 2 days.

[1] = no reference given; cited from earlier work

| SMILES | IC50 (PRMT5) [µM] | inhibition at 0.1 µM (PRMT5) [%] | GI50 (MV-4-11 cells) [µM] | GI50 (MDA-MB-468 cells) [µM] | inhibition at 10 µM (AML-12 hepatocytes) [%] | inhibition at 20 µM (AML-12 hepatocytes) [%] | TGI (MV-4-11 xenograft) [%] | adverse events in clinical studies [1] |
| --- | --- | --- | --- | --- | --- | --- | --- | --- |
| O=C(NC[C@H](O)CN1CCc2ccccc2C1)c1ccc2[nH]c3ccccc3c2c1 [Compound 1, (S)-N-(3-(3,4-dihydroisoquinolin-2(1H)-yl)-2-hydroxypropyl)-9H-carbazole-3-carboxamide] | 0.013 ± 0.0089 | 73 ± 0.7 | 0.271 ± 0.152 | 0.552 ± 0.033 | 16.7 ± 10.4 | 97.5 ± 0.1 | – | – |
| CCn1c2c(c3cc(C(=O)NC[C@H](O)CN4CCc5ccccc5C4)ccc31)CCCC2 [Compound 14, (S)-N-(3-(3,4-dihydroisoquinolin-2(1H)-yl)-2-hydroxypropyl)-9-ethyl-2,3,4,9-tetrahydro-1H-carbazole-6-carboxamide] | 0.0088 ± 0.0004 | 81 ± 3.2 | 0.0297 ± 0.0128 | 0.286 ± 0.0059 | -67 ± 11.3 | 17.7 ± 3.5 | – | – |
| CC(=O)N1CCC(Nc2cc(C(=O)NC[C@H](O)CN3CCc4ccccc4C3)ncn2)CC1 [GSK-3326595, reference compound] | – | – | 0.0093 ± 0.0028 | 0.0373 ± 0.003 | 22.9 ± 3 | 26.5 ± 2 | 39.3 | grade 3 or 4 adverse events |
| O=C(NC[C@H](O)CN1CCc2ccccc2C1)c1ccc2[nH]c3c(c2c1)CCCC3 [Compound 7, (S)-N-(3-(3,4-dihydroisoquinolin-2(1H)-yl)-2-hydroxypropyl)-2,3,4,9-tetrahydro-1H-carbazole-6-carboxamide] | 0.0186 ± 0.0009 | 75 ± 0.7 | 0.0541 ± 0.0205 | > 0.25 | 46.4 ± 3.7 | 98.4 ± 0.7 | – | – |
| CCCn1c2c(c3cc(C(=O)NC[C@H](O)CN4CCc5ccccc5C4)ccc31)CCCC2 [Compound 15] | 0.0042 ± 0.0021 | 79 ± 4 | 0.0395 ± 0.0019 | 0.0249 ± 0.0202 | -21.5 ± 2 | 77.3 ± 1.6 | – | – |
| O=C(NC[C@H](O)CN1CCc2ccccc2C1)c1ccc2c(c1)c1c(n2CC2CCC2)CCCC1 [Compound 19, (S)-9-(cyclobutylmethyl)-N-(3-(3,4-dihydroisoquinolin-2(1H)-yl)-2-hydroxypropyl)-2,3,4,9-tetrahydro-1H-carbazole-6-carboxamide] | 0.0075 ± 0.0003 | 80 ± 1 | 0.016 ± 0.0023 | 0.0991 ± 0.0083 | 32.9 ± 5.4 | 100.2 ± 0.9 | – | – |
| Cn1c2c(c3cc(C(=O)NC[C@H](O)CN4CCc5ccccc5C4)ccc31)CCCC2 [Compound 13, (S)-N-(3-(3,4-dihydroisoquinolin-2(1H)-yl)-2-hydroxypropyl)-9-methyl-2,3,4,9-tetrahydro-1H-carbazole-6-carboxamide] | 0.01 ± 0.0044 | 75 ± 0.7 | 0.1631 ± 0.0003 | 0.147 ± 0.0025 | 16.3 ± 3.4 | 21.2 ± 2 | – | – |
